Results on 52 sequences are retold here after the supplement of paper PMC11208160.
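Note: IS621 bridge recombinase in Escherichia coli cells against a fixed T5 target plasmid.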

The series is described as follows: recombinant UMI read abundance after kanamycin selection (control-corrected) (log10(CPM+1)); higher = more efficient recombination; extreme values may be limits of the assay; sequences stand for … in AGTGCAGAGAAAATCGGCCAGTTTTCTCTGCCTGCAGTCCGCATGCCGTGGGACCCCTTGGGTTCTAACCTGTTGCCTAGATTTATGCAGCGGACTGCCTTTCTCCCAAAGTGATAAACCGG…AGGTTGGTTTCACT; site = the 11-nt donor. A digest of the protocol: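 After plating on IPTG (0.07 mM) plus kanamycin, or unselected, in two replicates, recombinant UMIs were PCR-amplified across the donor–target junction and sequenced. The cells were Escherichia coli co-electroporated with a UMI-tagged donor and donor-binding-loop pair library and a target plasmid with a fixed target and T7-inducible IS621 bridge recombinase. Values are log10(CPM+1), with CPM averaged over replicates and scaled by control-derived factors.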
Consider “TCATTCTCATGGACCGGTTTTCCCGGTAATCCGTATTTGCA (site TCATCCTCTTG)”, for which the “recombinant UMI read abundance (log10)” value is 0.
On to “TCATTCTCATGGACCGGTTTTCCCGGTAATCCGTATTTGCA (site TCATGCTCTTG)”, for which the “recombinant UMI read abundance (log10)” value is 0.00845.
As for “TCATTCTCATGGACCGGTTTTCCCGGTAATCCGTATTTGCA (site TCATTCTCTTG)”, the “recombinant UMI read abundance (log10)” value was determined as 1.41.
“TCCAAAGCATGGACCGGTTTTCCCGGTAATCCGTATTTGGA (site TCCAAAGCTTC)”: the “recombinant UMI read abundance (log10)” value stood at 0.0225.
With “TCCAAGTCATGGACCGGTTTTCCCGGTAATCCGTATTTGCC (site TCCAAATCTGG)”, the “recombinant UMI read abundance (log10)” value turned out to be 0.
Regarding “TCCAAGTCATGGACCGGTTTTCCCGGTAATCCGTATTTGCC (site TCCAACTCTGG)”, the “recombinant UMI read abundance (log10)” value was determined as 0.
As to “TCCAAGTCATGGACCGGTTTTCCCGGTAATCCGTATTTGCC (site TCCAAGTCTGG)”, the “recombinant UMI read abundance (log10)” value was determined as 0.
Take “TCCAAGTCATGGACCGGTTTTCCCGGTAATCCGTATTTGCC (site TCCAATTCTGG)”: the “recombinant UMI read abundance (log10)” value turned out to be 0.
For the sequence “TCCAATTCATGGACCGGTTTTCCCGGTAATCCGTATTTGAC (site TCCAATTCTGA)”, the “recombinant UMI read abundance (log10)” value was found to be 0.
In the case of “TCCAATTCATGGACCGGTTTTCCCGGTAATCCGTATTTGAC (site TCCAATTCTGC)”, the “recombinant UMI read abundance (log10)” value came out at 0.
“TCCAATTCATGGACCGGTTTTCCCGGTAATCCGTATTTGAC (site TCCAATTCTGG)”: the “recombinant UMI read abundance (log10)” value was 0.
On to “TCCAATTCATGGACCGGTTTTCCCGGTAATCCGTATTTGAC (site TCCAATTCTGT)”, for which the “recombinant UMI read abundance (log10)” value was determined as 0.
As for “TCCAATTCATGGACCGGTTTTCCCGGTAATCCGTATTTGCT (site TCCAATTCTAG)”, the “recombinant UMI read abundance (log10)” value amounted to 0.
Consider “TCCAATTCATGGACCGGTTTTCCCGGTAATCCGTATTTGCT (site TCCAATTCTCG)”, for which the “recombinant UMI read abundance (log10)” value worked out at 0.
Take “TCCAATTCATGGACCGGTTTTCCCGGTAATCCGTATTTGCT (site TCCAATTCTGG)”: the “recombinant UMI read abundance (log10)” value was 0.
In the case of “TCCAATTCATGGACCGGTTTTCCCGGTAATCCGTATTTGCT (site TCCAATTCTTG)”, the “recombinant UMI read abundance (log10)” value came out at 0.
Regarding “TCCACCGCATGGACCGGTTTTCCCGGTAATCCGTATTTGGG (site TCCACCGCTCA)”, the “recombinant UMI read abundance (log10)” value stood at 0.0369.
Then “TCCACCGCATGGACCGGTTTTCCCGGTAATCCGTATTTGGG (site TCCACCGCTCC)”, with 0.00928.
As for “TCCACCGCATGGACCGGTTTTCCCGGTAATCCGTATTTGGG (site TCCACCGCTCG)”, the figure is 0.0231; as for “TCCACCGCATGGACCGGTTTTCCCGGTAATCCGTATTTGGG (site TCCACCGCTCT)”, 0.0189.
Take “TCCATCGCATGGACCGGTTTTCCCGGTAATCCGTATTTGCG (site TCCAACGCTCG)”: the “recombinant UMI read abundance (log10)” value turned out to be 0.
Then “TCCATCGCATGGACCGGTTTTCCCGGTAATCCGTATTTGCG (site TCCACCGCTCG)”, with 0.0339; and “TCCATCGCATGGACCGGTTTTCCCGGTAATCCGTATTTGCG (site TCCAGCGCTCG)”, with 0.047; and “TCCATCGCATGGACCGGTTTTCCCGGTAATCCGTATTTGCG (site TCCATCGCTCG)”, with 0.00801.
As for “TCCCAATCATGGACCGGTTTTCCCGGTAATCCGTATTTGTT (site TCCCAATCTAA)”, the figure is 0.00639; as for “TCCCACCCATGGACCGGTTTTCCCGGTAATCCGTATTTGCA (site TCCCACCCTTG)”, 0.
In the case of “TCCCATACATGGACCGGTTTTCCCGGTAATCCGTATTTGGC (site TCCCATACTGC)”, the “recombinant UMI read abundance (log10)” value was found to be 0.
Take “TCCCCCGCATGGACCGGTTTTCCCGGTAATCCGTATTTGCG (site TCCACCGCTCG)”: the “recombinant UMI read abundance (log10)” value came out at 0.00501.
For the sequence “TCCCCCGCATGGACCGGTTTTCCCGGTAATCCGTATTTGCG (site TCCCCCGCTCG)”, the “recombinant UMI read abundance (log10)” value turned out to be 0.0127.
As to “TCCCCCGCATGGACCGGTTTTCCCGGTAATCCGTATTTGCG (site TCCGCCGCTCG)”, the “recombinant UMI read abundance (log10)” value amounted to 0.0064.
Consider “TCCCCCGCATGGACCGGTTTTCCCGGTAATCCGTATTTGCG (site TCCTCCGCTCG)”, for which the “recombinant UMI read abundance (log10)” value worked out at 0.00786.
Then “TCCCCTACATGGACCGGTTTTCCCGGTAATCCGTATTTGCC (site TCCCCTACTGG)”, with 0; and “TCCCTTACATGGACCGGTTTTCCCGGTAATCCGTATTTGTA (site TCCCTTACTTA)”, with 0.0182; and “TCCCTTGCATGGACCGGTTTTCCCGGTAATCCGTATTTGGT (site TCCCTTGCTAC)”, with 0.
Then “TCCGACGCATGGACCGGTTTTCCCGGTAATCCGTATTTGCT (site TCCGACGCTAG)”, with 0.968.
Consider “TCCGGAACATGGACCGGTTTTCCCGGTAATCCGTATTTGCT (site TCCGGAACTAG)”, for which the “recombinant UMI read abundance (log10)” value was 0.
Turning to “TCCGGGTCATGGACCGGTTTTCCCGGTAATCCGTATTTGAC (site GGAATCGCTAG)”, the “recombinant UMI read abundance (log10)” value was 0.
In the case of “TCCGGTCCATGGACCGGTTTTCCCGGTAATCCGTATTTGCA (site ACCGGTCCTTG)”, the “recombinant UMI read abundance (log10)” value worked out at 0.
Consider “TCCGGTCCATGGACCGGTTTTCCCGGTAATCCGTATTTGCA (site CCCGGTCCTTG)”, for which the “recombinant UMI read abundance (log10)” value came out at 0.
For the sequence “TCCGGTCCATGGACCGGTTTTCCCGGTAATCCGTATTTGCA (site GCCGGTCCTTG)”, the “recombinant UMI read abundance (log10)” value turned out to be 0.
Then “TCCGGTCCATGGACCGGTTTTCCCGGTAATCCGTATTTGCA (site TCCGGTCCTTG)”, with 0; and “TCCTACGCATGGACCGGTTTTCCCGGTAATCCGTATTTGCC (site TCCTACGCTGG)”, with 0; and “TCCTCCACATGGACCGGTTTTCCCGGTAATCCGTATTTGGT (site TCCTCCACTAC)”, with 0.0263.
In the case of “TCCTCGCCATGGACCGGTTTTCCCGGTAATCCGTATTTGTT (site TCCTCGCCTAA)”, the “recombinant UMI read abundance (log10)” value amounted to 0.0142.
Then “TCCTGAACATGGACCGGTTTTCCCGGTAATCCGTATTTGCT (site TCCTGAACTAG)”, with 0; and “TCCTGGCCATGGACCGGTTTTCCCGGTAATCCGTATTTGTA (site TCCTGGCCTTA)”, with 0.0229.
On to “TCCTTACCATGGACCGGTTTTCCCGGTAATCCGTATTTGGA (site TCCTTACCTTC)”, for which the “recombinant UMI read abundance (log10)” value is 0.00485.
Consider “TCCTTCGCATGGACCGGTTTTCCCGGTAATCCGTATTTGCT (site GATCCACCTTC)”, for which the “recombinant UMI read abundance (log10)” value was 0.0105.
On to “TCGAAAACATGGACCGGTTTTCCCGGTAATCCGTATTTGCT (site ACGAAAACTAG)”, for which the “recombinant UMI read abundance (log10)” value was 0.
As to “TCGAAAACATGGACCGGTTTTCCCGGTAATCCGTATTTGCT (site CCGAAAACTAG)”, the “recombinant UMI read abundance (log10)” value was determined as 0.679.
In the case of “TCGAAAACATGGACCGGTTTTCCCGGTAATCCGTATTTGCT (site GCGAAAACTAG)”, the “recombinant UMI read abundance (log10)” value was determined as 0.
Regarding “TCGAAAACATGGACCGGTTTTCCCGGTAATCCGTATTTGCT (site TCGAAAACTAG)”, the “recombinant UMI read abundance (log10)” value was 0.
